Test [1] addresses T1, recombinant human c-Met/HGF receptor (Homo sapiens, UniProt P08581).
T1 construct: His tag; made in house; host or cells: Hi-5 cells (Trichoplusia ni), recombinant baculovirus
As to the kind of experiment: In vitro receptor tyrosine kinase assay, c-Met (DELFIA). The test is classed as biochemical. To be noted: ATP 10 uM, enzyme 25 nM; read-out: Potency in enzyme assays Cmet. An excerpt:
(§1) These tests measure the ability of compounds to inhibit the enzymatic activity of recombinant human c-Met/HGF receptor and VEGF receptor enzymatic activity.
A 1.3-kb cDNA corresponding to the intracellular domain of c-Met or c-Met IC (Genbank accession number NP000236-1 amino acid […]) is cloned into the BamHI/XhoI sites of the pBlueBacHis2A vector (Invitrogen) for the production of a histidine-tagged version of that enzyme. This construct is used to generate recombinant baculovirus using the Bac-N-Blue™ system according to the manufacturer's instructions (Invitrogen).
The c-Met IC protein is expressed in Hi-5 cells (Trichoplusia Ni) upon infection with recombinant baculovirus construct. Briefly, Hi-5 cells grown in suspension and maintained in serum-free medium (Sf900 II supplemented with gentamycin) at a cell density of about 2×10^6 cells/ml are infected with the above-mentioned viruses at a multiplicity of infection (MOI) of 0.2 during 72 hours at 27° C. with agitation at 120 rpm on a rotary shaker. Infected cells are harvested by centrifugation at 398 g for 15 min. Cell pellets are frozen at −80° C. until purification is performed.
All steps described in cell extraction and purification are performed at 4° C. Frozen Hi-5 cell pellets infected with the C-Met IC recombinant baculovirus are thawed and gently resuspended in Buffer A (20 mM Tris pH 8.0, 10% glycerol, 1 μg/ml pepstatin, 2 μg/ml Aprotinin and leupeptin, 50 μg/ml PMSF, 50 μg/ml TLCK and 10 μM E64, 0.5 mM DTT and 1 mM Levamisole) using 3 ml of buffer per gram of cells. The suspension is Dounce homogenized after which it is centrifuged at 22500 g, 30 min., 4° C. The supernatant (cell extract) is used as starting material for purification of c-Met IC.
The supernatant is loaded onto a QsepharoseFF column (Amersham Biosciences) equilibrated with Buffer B (20 mM Tris pH 8.0, 10% glycerol) supplemented with 0.05M NaCl. Following a ten column volume (CV) wash with equilibration buffer, bound proteins are eluted with a 5 CV salt linear gradient spanning from 0.05 to 1M NaCl in Buffer B. Typically, the conductivity of selected fractions rank between 6.5 and 37 mS/cm. This Qsepharose eluate has an estimated NaCl concentration of 0.33M and is supplemented with a 5M NaCl solution in order to increase NaCl concentration at 0.5M and also with a 5M Imidazole (pH 8.0) solution to achieve a final imidazole concentration of 15 mM. This material is loaded onto a HisTrap affinity column (GE Healthcare) equilibrated with Buffer C (50 mM NaPO4 pH 8.0, 0.5M NaCl, 10% glycerol) supplemented with 15 mM imidazole. After a 10 CV wash with equilibration buffer and an 8 CV wash with buffer C+40 mM imidazole, bound proteins are eluted with an 8 CV linear gradient (15 to 500 mM) of imidazole in buffer C. C-Met IC enriched fractions from this chromatography step are pooled based on SDS-PAGE analysis. This pool of enzyme undergoes buffer exchange using PD-10 column (GE Healthcare) against buffer D (25 mM HEPES pH 7.5, 0.1M NaCl, 10% glycerol and 2 mM β-mercaptoethanol). Final C-Met IC protein preparations concentrations are about 0.5 mg/ml with purity approximating 80%. Purified c-Met IC protein stocks are supplemented with BSA at 1 mg/ml, aliquoted and frozen at −80° C. prior to use in enzymatic assay.
Inhibition of c-Met/HGF receptor and VEGFR/KDR is measured in a DELFIA™ assay (Perkin Elmer). The substrate poly(Glu4,Tyr) is immobilized onto black high-binding polystyrene 96-well plates. The coated plates are washed and stored at 4° C. During the assay, enzymes are pre-incubated with inhibitor and Mg-ATP on ice in polypropylene 96-well plates for 4 minutes, and then transferred to the coated plates. The subsequent kinase reaction takes place at 30° C. for 10-30 minutes. ATP concentrations in the assay are 10 uM for C-Met (5× the Km) and 0.6 uM for VEGFR/KDR (2× the Km). Enzyme concentration is 25 nM (C-Met) or 5 nM (VEGFR/KDR). […]

In a further test the test system is A549. As to the kind of experiment: A549 wound healing inhibition. Conditions: Homo sapiens; A549 cells; read-out: Potency in cell-based assays A549 wound healing inhibition.
A further test concerns DU145. Put plainly: DU145 scattering inhibition. Conditions: Homo sapiens, DU-145; DU145 cells; read-out: Potency in cell-based assays DU145 scattering inhibition.
The target in a further test is T2, VEGF receptor KDR (Homo sapiens, UniProt P35968).
T2 construct: made in house; host or cells: Sf9 cells (Spodoptera frugiperda), recombinant baculovirus
T2 sequence (P35968 806-1356): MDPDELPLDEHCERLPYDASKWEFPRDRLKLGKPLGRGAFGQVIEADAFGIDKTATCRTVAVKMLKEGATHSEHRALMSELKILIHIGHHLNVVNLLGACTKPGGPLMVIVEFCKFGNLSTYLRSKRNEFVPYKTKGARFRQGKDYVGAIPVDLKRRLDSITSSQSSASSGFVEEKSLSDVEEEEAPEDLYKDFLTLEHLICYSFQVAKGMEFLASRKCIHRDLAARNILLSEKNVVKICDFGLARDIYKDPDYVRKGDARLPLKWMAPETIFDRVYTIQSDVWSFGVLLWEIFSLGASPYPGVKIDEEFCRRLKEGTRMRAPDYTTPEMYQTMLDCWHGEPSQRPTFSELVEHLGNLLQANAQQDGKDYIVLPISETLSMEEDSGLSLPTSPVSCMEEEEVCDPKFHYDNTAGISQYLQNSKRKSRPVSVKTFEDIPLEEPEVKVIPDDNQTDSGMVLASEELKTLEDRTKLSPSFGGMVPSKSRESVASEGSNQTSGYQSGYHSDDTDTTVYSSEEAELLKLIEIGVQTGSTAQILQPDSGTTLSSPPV
As to the kind of experiment: In vitro receptor tyrosine kinase assay, VEGF receptor KDR (DELFIA). In kind it is biochemical. Conditions: ATP 0.6 uM, enzyme 5 nM; read-out: Potency in enzyme assays VEGF.
Description: as §1
In the case of VEGF receptor KDR a 1.6-kb cDNA corresponding to the catalytic domain of VEGFR2 or KDR (Genbank accession number AF035121 amino acid 806 to 1356) is cloned into the Pst I site of the pDEST20 Gateway vector (Invitrogen) for the production of a GST-tagged version of that enzyme. This construct is used to generate recombinant baculovirus using the Bac-to-Bac system according to the manufacturer's instructions (Invitrogen).
The GST-VEGFR2806-1356 protein is expressed in Sf9 cells (Spodoptera frugiperda) upon infection with recombinant baculovirus construct. Briefly, Sf9 cells grown in suspension and maintained in serum-free medium (Sf900 II supplemented with gentamycin) at a cell density of about 2×10^6 cells/ml are infected with the above-mentioned viruses at a multiplicity of infection (MOI) of 0.1 during 72 hours at 27° C. with agitation at 120 rpm on a rotary shaker. Infected cells are harvested by centrifugation at 398 g for 15 min. Cell pellets are frozen at −80° C. until purification is performed.
All steps described in cell extraction and purification are performed at 4° C. Frozen Sf9 cell pellets infected with the GST-VEGFR2806-1356 recombinant baculovirus re thawed and gently resuspended in Buffer A (PBS pH 7.3 supplemented with 1 μg/ml pepstatin, 2 μg/ml Aprotinin and leupeptin, 50 μg/ml PMSF, 50 μg/ml TLCK and 10 μM E64 and 0.5 mM DTT) using 3 ml of buffer per gram of cells. Suspension is Dounce homogenized and 1% Triton X-100 is added to the homogenate after which it is centrifuged at 22500 g, 30 min., 4° C. The supernatant (cell extract) is used as starting material for purification of GST-VEGFR2806-1356.
The supernatant is loaded onto a GST-agarose column (Sigma) equilibrated with PBS pH 7.3. Following a four column volume (CV) wash with PBS pH 7.3+1% Triton X-100 and 4 CV wash with buffer B (50 mM Tris pH 8.0, 20% glycerol and 100 mM NaCl), bound proteins are step eluted with 5 CV of buffer B supplemented with 5 mM DTT and 15 mM glutathion. GST-VEGFR2806-1356 enriched fractions from this chromatography step are pooled based on U.V. trace i.e. fractions with high O.D^-280- Final GST-VEGFR2806-1356 protein preparations concentrations are about 0.7 mg/ml with purity approximating 70%. Purified GST-VEGFR2806-1356 protein stocks are aliquoted and frozen at −80° C. prior to use in enzymatic assay.
Inhibition of c-Met/HGF receptor and VEGFR/KDR is measured in a DELFIA™ assay (Perkin Elmer). The substrate poly(Glu4,Tyr) is immobilized onto black high-binding polystyrene 96-well plates. The coated plates are washed and stored at 4° C. During the assay, enzymes are pre-incubated with inhibitor and Mg-ATP on ice in polypropylene 96-well plates for 4 minutes, and then transferred to the coated plates. The subsequent kinase reaction takes place at 30° C. for 10-30 minutes. ATP concentrations in the assay are 10 uM for C-Met (5× the Km) and 0.6 uM for VEGFR/KDR (2× the Km). Enzyme concentration is 25 nM (C-Met) or 5 nM (VEGFR/KDR). After incubation, the kinase reactions are quenched with EDTA and the plates are washed. Phosphorylated product is detected by incubation with Europium-labeled anti-phosphotyrosine MoAb. After washing the plates, bound MoAb is detected by time-resolved fluorescence in a Gemini SpectraMax reader (Molecular Devices). Compounds are evaluated over a range of concentrations and IC50's (concentration of compounds giving 50% inhibition of enzymatic activity) are determined.

T1 sequence (P08581 1078-1337): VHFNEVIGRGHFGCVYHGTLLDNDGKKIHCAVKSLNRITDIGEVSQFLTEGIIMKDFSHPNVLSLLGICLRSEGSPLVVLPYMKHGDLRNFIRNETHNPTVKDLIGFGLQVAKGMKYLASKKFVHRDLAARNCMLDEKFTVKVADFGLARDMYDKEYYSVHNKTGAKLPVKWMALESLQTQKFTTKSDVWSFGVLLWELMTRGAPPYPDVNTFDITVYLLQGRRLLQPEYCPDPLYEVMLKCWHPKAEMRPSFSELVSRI

`O=C(Nc1ccc(Oc2ccnc(Nc3ccccc3)c2)c(F)c1)N1CCN(c2ccccc2)C1=O` [Compound 70, N-(3-fluoro-4-(2-(phenylamino)pyridin-4-yloxy)phenyl)-2-oxo-3-phenylimidazolidine-1-carboxamide]: the IC50 in test [1] was under 250 nM; with A549 it was 1000 to 5000 nM; in the test with DU145, 5000 to 10000 nM; on VEGF receptor KDR it was at least 1000 nM.
The matching figures for `O=C(Nc1ccc(Oc2ccnc(Nc3ccccc3)n2)c(F)c1)N1CCN(c2ccccc2)C1=O` [Compound 61a, N-(3-fluoro-4-(2-(phenylamino)pyrimidin-4-yloxy)phenyl)-2-oxo-3-phenyl-imidazolidine-1-carboxamide]: 500 to 1000 nM, 5000 to 10000 nM, over 10000 nM and at least 1000 nM.
Take `O=C(Nc1cc(Oc2ccc(NC(=O)N3CCN(c4ccccc4)C3=O)cc2F)ncn1)N1CCCC1` [Compound 9c, N-(3-Fluoro-4-(6-(pyrrolidine-1-carboxamido)pyrimidin-4-yloxy)phenyl)-2-oxo-3-phenylimidazolidine-1-carboxamide]: the IC50 in test [1] was under 250 nM; in the test on A549 it was 1000 to 5000 nM; in the test on DU145 it was 5000 to 10000 nM; at VEGF receptor KDR, under 250 nM.
Regarding `CNC(=O)c1cc(Oc2ccc(NC(=O)N3CCN(c4ccccc4)C3=O)cc2F)ccn1` [Compound 87a, 4-(2-fluoro-4-(2-oxo-3-phenylimidazolidine-1-carboxamido)phenoxy)-N-methylpicolinamide], the IC50 in test [1] was 250 to 500 nM; with A549, 1000 to 5000 nM; in the test with DU145, 5000 to 10000 nM; on VEGF receptor KDR it was 250 to 500 nM.
As to `O=C(Nc1ccc(Oc2ccncc2)c(F)c1)N1CCN(c2ccc(Cl)cc2)C1=O` [Compound 21f, 3-(4-chlorophenyl)-N-(3-fluoro-4-(pyridin-4-yloxy)phenyl)-2-oxoimidazolidine-1-carboxamide], the IC50 in test [1] is 250 to 500 nM; in the test on A549, 1000 to 5000 nM; in the test with DU145, 5000 to 10000 nM; on VEGF receptor KDR, at least 1000 nM.
The matching figures for `O=C(CC(Nc1ccc(F)cc1)C(F)(F)F)Nc1ccc(Oc2cc(NC(=O)N3CCCC3)ncn2)c(F)c1` (stereo not shown) [Compound 9a, N-(6-(2-Fluoro-4-(4,4,4-trifluoro-3-(4-fluorophenylamino)butanamido)phenoxy)pyrimidin-4-yl)pyrrolidine-1-carboxamide]: at least 1000 nM, 1000 to 5000 nM, 5000 to 10000 nM and at least 1000 nM.
As to `CNC(=O)c1cc(Oc2ccc(NC(=O)N3CCN(c4ccc(F)cc4)C3=O)cc2F)ccn1` [Compound 87b, 4-(2-fluoro-4-(3-(4-fluorophenyl)-2-oxoimidazolidine-1-carboxamido)phenoxy)-N-methylpicolinamide], the IC50 in test [1] was 500 to 1000 nM; in the test with A549, 1000 to 5000 nM; in the test on DU145 it was 1000 to 5000 nM; at VEGF receptor KDR, at least 1000 nM.
On to `O=C(Nc1ccc(Oc2ccncc2)c(F)c1)N1CCN(c2cccc(Cl)c2)C1=O` [Compound 21g, 3-(3-chlorophenyl)-N-(3-fluoro-4-(pyridin-4-yloxy)phenyl)-2-oxoimidazolidine-1-carboxamide], for which the IC50 in test [1] is 500 to 1000 nM; with A549 it was 5000 to 10000 nM; in the test with DU145, 5000 to 10000 nM; on VEGF receptor KDR, at least 1000 nM.
Take `O=C(Nc1ccc(Oc2ccncc2)c(F)c1)N1CCN(c2cccc(C(F)(F)F)c2)C1=O` [Compound 21c, N-(3-fluoro-4-(pyridin-4-yloxy)phenyl)-2-oxo-3-(3-(trifluoromethyl)phenyl)imidazolidine-1-carboxamide]: the IC50 was at least 1000 nM in test [1], 5000 to 10000 nM in the test with A549, 5000 to 10000 nM in the test with DU145 and at least 1000 nM at VEGF receptor KDR.
Turning to `O=C(Nc1ccc(Oc2ccncc2)c(F)c1)N1CCN(c2ccccc2Cl)C1=O` [Compound 21h, 3-(2-chlorophenyl)-N-(3-fluoro-4-(pyridin-4-yloxy)phenyl)-2-oxoimidazolidine-1-carboxamide], the IC50 is 500 to 1000 nM in test [1], 1000 to 5000 nM with A549, at least 1000 nM in the test on DU145 and at least 1000 nM on VEGF receptor KDR.

These data come from patent publication US20080255155A1, “KINASE INHIBITORS AND USES THEREOF” (priority 2006, published 2008).
